Assay results taken from US20080200454A1, “CARBON-LINKED TETRAHYDRO-PYRAZOLO-PYRIDINE MODULATORS OF CATHEPSIN S” (priority 2007, published 2008).
pIC50: −log10 of the molar value.

What follows are compounds tested against Recombinant human cathepsin S (CatS) (Homo sapiens, UniProt P25774) (assay: Recombinant human cathepsin S (CatS) inhibition assay, fluorogenic substrate Z-Valine-Valine-Arginine-AMC). Conditions: not given.
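Note: Baculovirus-expressed CatS in pH 5.0 sodium acetate buffer with DTT and NaCl, fluorescence read each minute over 20 min, inhibition derived from rate slope.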

Chain of Recombinant human cathepsin S (CatS) (P25774 115-331): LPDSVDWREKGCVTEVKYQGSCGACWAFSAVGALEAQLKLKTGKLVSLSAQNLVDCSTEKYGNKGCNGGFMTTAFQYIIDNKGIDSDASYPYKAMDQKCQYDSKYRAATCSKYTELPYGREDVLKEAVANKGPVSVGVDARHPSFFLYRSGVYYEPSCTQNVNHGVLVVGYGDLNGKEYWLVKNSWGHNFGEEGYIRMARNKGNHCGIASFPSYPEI

pIC50 | SMILES
6.10 | CNC(=O)N1CCc2c(c(-c3ccc(Cl)c(C#Cc4ccc(CNCc5ccc(Cl)cc5)cc4)c3)nn2CCCN2CCOCC2)C1 [Example 155, 3-(4-Chloro-3-{[4-({[(4-chlorophenyl)methyl]amino}methyl)phenyl]ethynyl}phenyl)-N-methyl-1-(3-morpholin-4-ylpropyl)-1,4,6,7-tetrahydro-5H-pyrazolo[4,3-c]pyridine-5-carboxamide]
6.28 | CS(=O)(=O)N1CCc2c(c(-c3ccc(Cl)c(C#Cc4ccc(CN)cc4)c3)nn2CCCN2CCOCC2)C1 [Example 69, 4-{2-Chloro-5-[5-methanesulfonyl-1-(3-morpholin-4-yl-propyl)-4,5,6,7-tetrahydro-1H-pyrazolo[4,3-c]pyridin-3-yl]-phenylethynyl}-benzylamine]
7.70 | CN1CCC(C2CCN(C[C@H](O)Cn3nc(-c4ccc(Cl)c(CCc5ccc(Cl)cc5)c4)c4c3CCN(S(C)(=O)=O)C4)CC2)CC1 [Example 248, (2S)-1-[3-{4-Chloro-3-[2-(4-chlorophenyl)ethyl]phenyl}-5-(methylsulfonyl)-4,5,6,7-tetrahydro-1H-pyrazolo[4,3-c]pyridin-1-yl]-3-(1′-methyl-4,4′-bipiperidin-1-yl)propan-2-ol]
4.71 | CCN(CC)CC#Cc1cc(-c2nn(CCCN3CCOCC3)c3c2CN(S(C)(=O)=O)CC3)ccc1Cl [Example 49, (3-{2-Chloro-5-[5-methanesulfonyl-1-(3-morpholin-4-yl-propyl)-4,5,6,7-tetrahydro-1H-pyrazolo[4,3-c]pyridin-3-yl]-phenyl}-prop-2-ynyl)-diethyl-amine]
5.97 | CS(=O)(=O)N1CCc2c(c(-c3ccc(Cl)c(CCCNS(=O)(=O)c4ccccc4)c3)nn2CCCN2CCOCC2)C1 [Example 65, N-(3-{2-Chloro-5-[5-methanesulfonyl-1-(3-morpholin-4-yl-propyl)-4,5,6,7-tetrahydro-1H-pyrazolo[4,3-c]pyridin-3-yl]-phenyl}-propyl)-benzenesulfonamide]
7.05 | NC(=O)N1CCc2c(c(-c3ccc(Cl)c(C#Cc4ccc(C(=O)NCc5cccnc5)cc4)c3)nn2CCCN2CCSCC2)C1 [Example 162, 3-{4-Chloro-3-[(4-{[(pyridin-3-ylmethyl)amino]carbonyl}phenyl)ethynyl]phenyl}-1-(3-thiomorpholin-4-ylpropyl)-1,4,6,7-tetrahydro-5H-pyrazolo[4,3-c]pyridine-5-carboxamide]
7.52 | NC(=O)N1CCc2c(c(-c3ccc(Cl)c(C#Cc4ccc(Cl)c(C(=O)NC[C@@H]5CCCN5)c4)c3)nn2CCCN2CCSCC2)C1 [Example 558, 3-{4-Chloro-3-[(4-chloro-3-{[(2S)-pyrrolidin-2-ylmethyl]carbamoyl}phenyl)ethynyl]phenyl}-1-(3-thiomorpholin-4-ylpropyl)-1,4,6,7-tetrahydro-5H-pyrazolo[4,3-c]pyridine-5-carboxamide]
6.74 | CS(=O)(=O)N1CCc2c(c(-c3ccc(Cl)c(C#Cc4ccc(CNCc5ccc(Cl)cc5)cc4)c3)nn2CCCN2CCOCC2CO)C1 (stereo not drawn) [Example 419, (4-{3-[3-(4-Chloro-3-{[4-({[(4-chlorophenyl)methyl]amino}methyl)phenyl]ethynyl}phenyl)-5-(methylsulfonyl)-4,5,6,7-tetrahydro-1H-pyrazolo[4,3-c]pyridin-1-yl]propyl}morpholin-3-yl)methanol]
7.52 | NC(=O)C(=O)N1CCc2c(c(-c3ccc(Cl)c(C#Cc4ccc(Cl)c(CNC5CC5)c4)c3)nn2CCCN2CCCCC2)C1 [Example 600, 2-{3-[4-Chloro-3-({4-chloro-3-[(cyclopropylamino)methyl]phenyl}ethynyl)phenyl]-1-(3-piperidin-1-ylpropyl)-1,4,6,7-tetrahydro-5H-pyrazolo[4,3-c]pyridin-5-yl}-2-oxoacetamide]
5.15 | CS(=O)(=O)N1CCc2c(c(-c3ccc(Cl)c(CCCCCO)c3)nn2CCCN2CCOCC2)C1 [Example 301, 5-{2-Chloro-5-[5-(methylsulfonyl)-1-(3-morpholin-4-ylpropyl)-4,5,6,7-tetrahydro-1H-pyrazolo[4,3-c]pyridin-3-yl]phenyl}pentan-1-ol]

Same assay, conditions: CatS IC50

SMILES | pIC50
CC(C)CC#Cc1cc(-c2nn(CCCN3CCOCC3)c3c2CN(S(C)(=O)=O)CC3)ccc1Cl [Example 51, 3-[4-Chloro-3-(4-methyl-pent-1-ynyl)-phenyl]-5-methanesulfonyl-1-(3-morpholin-4-yl-propyl)-4,5,6,7-tetrahydro-1H-pyrazolo[4,3-c]pyridine] | 5.08
CS(=O)(=O)N1CCc2c(c(-c3ccc(Cl)c(C#Cc4ccc(F)cc4F)c3)nn2CCCN2CCOCC2)C1 [Example 33, 3-[4-Chloro-3-(2,4-difluoro-phenylethynyl)-phenyl]-5-methanesulfonyl-1-(3-morpholin-4-yl-propyl)-4,5,6,7-tetrahydro-1H-pyrazolo[4,3-c]pyridine] | 6.12
CS(=O)(=O)N1CCc2c(c(-c3ccc(Cl)c(C#Cc4ccc5c(c4)CN[C@@H](C(=O)N4CCOCC4)C5)c3)nn2CCCN2CCOCC2)C1 [Example 541, (3R)-7-({2-Chloro-5-[5-(methylsulfonyl)-1-(3-morpholin-4-ylpropyl)-4,5,6,7-tetrahydro-1H-pyrazolo[4,3-c]pyridin-3-yl]phenyl}ethynyl)-3-(morpholin-4-ylcarbonyl)-1,2,3,4-tetrahydroisoquinoline] | 6.02
NC(=O)N1CCc2c(c(-c3ccc(Cl)c(C#Cc4ccc(Cl)c(CNCc5ccccn5)c4)c3)nn2CCCN2CCSCC2)C1 [Example 292, 3-{4-Chloro-3-[(4-chloro-3-{[(pyridin-2-ylmethyl)amino]methyl}phenyl)ethynyl]phenyl}-1-(3-thiomorpholin-4-ylpropyl)-1,4,6,7-tetrahydro-5H-pyrazolo[4,3-c]pyridine-5-carboxamide] | 7.70
NC(=O)C(=O)N1CCc2c(c(-c3ccc(Cl)c(C#Cc4ccc(CNCc5ccc(Cl)cc5)cc4)c3)nn2CCCN2CCC3(CC2)OCCO3)C1 [Example 451, 2-{3-(4-Chloro-3-{[4-({[(4-chlorophenyl)methyl]amino}methyl)phenyl]ethynyl}phenyl)-1-[3-(1,4-dioxa-8-azaspiro[4.5]dec-8-yl)propyl]-1,4,6,7-tetrahydro-5H-pyrazolo[4,3-c]pyridin-5-yl}-2-oxoacetamide] | 7.00
CS(=O)(=O)N1CCc2c(c(-c3ccc(Cl)c(C#Cc4ccc(CNCc5ccc(Cl)cc5)cc4)c3)nn2CCCN2CCC(CO)CC2)C1 [Example 337, (1-{3-[3-(4-Chloro-3-{[4-({[(4-chlorophenyl)methyl]amino}methyl)phenyl]ethynyl}phenyl)-5-(methylsulfonyl)-4,5,6,7-tetrahydro-1H-pyrazolo[4,3-c]pyridin-1-yl]propyl}piperidin-4-yl)methanol] | 7.15
CS(=O)(=O)N1CCc2c(c(-c3ccc(Cl)c(CCCN4CCC(F)(F)CC4)c3)nn2CCCN2CCC(N3CCCC3=O)CC2)C1 [Example 104, 1-{1-[3-(3-{4-Chloro-3-[3-(4,4-difluoro-piperidin-1-yl)-propyl]-phenyl}-5-methanesulfonyl-4,5,6,7-tetrahydro-pyrazolo[4,3-c]pyridin-1-yl)-propyl]-piperidin-4-yl}-pyrrolidin-2-one] | 6.03
CS(=O)(=O)N1CCc2c(c(-c3ccc(Cl)c(C#Cc4ccc(CNCc5ccco5)cc4)c3)nn2CCCN2CCOCC2)C1 [Example 425, 1-[4-({2-Chloro-5-[5-(methylsulfonyl)-1-(3-morpholin-4-ylpropyl)-4,5,6,7-tetrahydro-1H-pyrazolo[4,3-c]pyridin-3-yl]phenyl}ethynyl)phenyl]-N-(furan-2-ylmethyl)methanamine] | 7.15
C[C@H]1COCCN1CCCn1nc(-c2ccc(Cl)c(C#Cc3ccc(Cl)c(CNCCO)c3)c2)c2c1CCN(S(C)(=O)=O)C2 [Example 293, 2-({[2-Chloro-5-({2-chloro-5-[1-{3-[(3S)-3-methylmorpholin-4-yl]propyl}-5-(methylsulfonyl)-4,5,6,7-tetrahydro-1H-pyrazolo[4,3-c]pyridin-3-yl]phenyl}ethynyl)phenyl]methyl}amino)ethanol] | 7.30
CS(=O)(=O)N1CCc2c(c(-c3ccc(Cl)c(C#Cc4ccc(CNCCO)cc4)c3)nn2CCCN2CCOCC2)C1 [Example 469, 2-({[4-({2-Chloro-5-[5-(methylsulfonyl)-1-(3-morpholin-4-ylpropyl)-4,5,6,7-tetrahydro-1H-pyrazolo[4,3-c]pyridin-3-yl]phenyl}ethynyl)phenyl]methyl}amino)ethanol] | 6.28
NC(=O)N1CCc2c(c(-c3ccc(Cl)c(C#Cc4ccc(CNCc5ccc(Cl)cc5)cc4)c3)nn2C[C@H](O)CN2CCSCC2)C1 [Example 252, (R)-3-(4-Chloro-3-{4-[(4-chloro-benzylamino)-methyl]-phenylethynyl}-phenyl)-1-(2-hydroxy-3-thiomorpholin-4-yl-propyl)-1,4,6,7-tetrahydro-pyrazolo[4,3-c]pyridine-5-carboxylic acid amide] | 6.96
C[C@H]1COCCN1CCCn1nc(-c2ccc(Cl)c(C#Cc3ccc(Cl)c(C(=O)NCC4CNC4)c3)c2)c2c1CCN(C(=O)C(N)=O)C2 [Example 598, 5-{[5-(5-[Amino(oxo)acetyl]-1-{3-[(3S)-3-methylmorpholin-4-yl]propyl}-4,5,6,7-tetrahydro-1H-pyrazolo[4,3-c]pyridin-3-yl)-2-chlorophenyl]ethynyl}-N-(azetidin-3-ylmethyl)-2-chlorobenzamide] | 7.52
CS(=O)(=O)N1CCc2c(c(-c3ccc(Cl)c(C#Cc4ccc(CN5Cc6ccccc6C5)cc4)c3)nn2CCCN2CCOCC2)C1 [Example 443, 3-(4-Chloro-3-{[4-(1,3-dihydro-2H-isoindol-2-ylmethyl)phenyl]ethynyl}phenyl)-5-(methylsulfonyl)-1-(3-morpholin-4-ylpropyl)-4,5,6,7-tetrahydro-1H-pyrazolo[4,3-c]pyridine] | 6.16
NC(=O)N1CCc2c(c(-c3ccc(Cl)c(C#Cc4ccc(C(=O)NCCN5CCOCC5)cc4)c3)nn2CCCN2CCSCC2)C1 [Example 607, 3-[4-Chloro-3-({4-[(2-morpholin-4-ylethyl)carbamoyl]phenyl}ethynyl)phenyl]-1-(3-thiomorpholin-4-ylpropyl)-1,4,6,7-tetrahydro-5H-pyrazolo[4,3-c]pyridine-5-carboxamide] | 7.30
